This note sets out measurements from patent US9249125B2, “Pyrazole derivatives as p38 MAP inhibitors” (RESPIVERT LIMITED, priority 2012, dated 2016).

One may read the IC50 as the concentration at which inhibition is half-maximal.

Bounds are passed on as bounds.

One data set has as its system d-U937 cells. Kind of data set: Cell viability: MTT assay. The format is cell-based, human. The note with it: 1 μg/mL. In short, it runs like this:
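MTT read-out (1 h, absorbance 550 nm) on d-U937 cells after pre-incubation with 1 or 10 μg/mL compound under two regimes: 4 h, 5% FCS, or 24 h, 10% FCS RPMI1640. Values are percent loss of viability relative to vehicle (0.5% DMSO), so increases are reported as negative.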
(Formazan colour is commonly taken as a measure of viable cells.)

For data set [1], the system named is Poly I:C-induced ICAM-1 expression in BEAS2B cells. Put plainly: Poly I:C-induced ICAM-1 expression in BEAS2B cells. The note with it: Homo sapiens, BEAS-2B, read-out: Poly IC induced ICAM1 in BEAS2B IC50. The class given is cell-based. In short, it runs like this:
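Cell-based ELISA read at 450 nm minus 655 nm, divided by crystal violet OD595 to normalize for cell number, gave ICAM-1 levels. Readout was taken 18 hr after poly I:C (1 μg/mL, Oligofectamine) transfection of human bronchial BEAS2B cells pretreated 2 hr with test compound.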

The target of the next data set is Syk (Homo sapiens (Human), UniProt P43405). Kind of data set: Syk enzyme inhibition (FRET, Z-LYTE). The format is biochemical. In short, it runs like this: (§1)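 Z-LYTE FRET kinase assay: enzyme (3000 or 2000 ng/mL stock, respectively) preincubated 2 h at RT with compound (4–0.004 μg/mL stocks), then FRET peptide plus ATP (800 μM stock for c-Src, 60 μM for Syk) added for 1 h. Protease development 1 h; phosphorylation from coumarin/fluorescein emission ratio.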

The subject of data set [2] is LPS-induced TNFα release in d-U937 cells. Kind of data set: LPS-induced TNFα release in d-U937 cells. The note with it: Homo sapiens, dU937, relative to 10 μg/mL BIRB796, read-out: LPS Induced Release of Cytokine in d-937 Cells TNFα REC50. The class given is cell-based. An outline of the steps: (§2)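 Human monocytic U937 cells were differentiated to macrophage-type cells with PMA (100 ng/mL) for 48 to 72 hr, pre-treated with test compound for 2 hr, then stimulated 4 hr with E. coli O111:B4 LPS (0.1 μg/mL). Supernatant TNFα and IL-8 were measured by sandwich ELISA; REC50 came from concentration-response curves.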

Data set [3] deals with LPS-induced IL-8 release in d-U937 cells. Put plainly: LPS-induced IL-8 release in d-U937 cells. The format is cell-based. Conditions: Homo sapiens, dU937, read-out: LPS Induced Release of Cytokine in d-937 Cells IL-8 IC50. In short, it runs like this:
as §2

Another data set has as its target cSrc (Homo sapiens (Human), UniProt P12931). Put plainly: c-Src enzyme inhibition (FRET, Z-LYTE). The class given is biochemical. In short, it runs like this:
as §1

Another data set addresses p38 MAPKα (Homo sapiens (Human), UniProt Q16539). Kind of data set: p38 MAPKα enzyme inhibition (FRET, Z-LYTE). The format is biochemical.
A further data set has as its target GSK3α (Homo sapiens (Human), UniProt P49840). Kind of data set: GSK 3α enzyme inhibition (FRET, Z-LYTE). The format is biochemical. In short, it runs like this:
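Phosphorylation was read as the donor (coumarin) to acceptor (fluorescein) ratio after a 1 hr protease step destroying non-phosphorylated peptide. Before this, compound (4–0.004 μg/mL stocks) sat 2 hr at RT with GSK3α (500 ng/mL stock), followed by 1 hr kinase reaction with 8 μM peptide and 40 μM ATP stocks.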

Chain of GSK3α (P49840 whole entry): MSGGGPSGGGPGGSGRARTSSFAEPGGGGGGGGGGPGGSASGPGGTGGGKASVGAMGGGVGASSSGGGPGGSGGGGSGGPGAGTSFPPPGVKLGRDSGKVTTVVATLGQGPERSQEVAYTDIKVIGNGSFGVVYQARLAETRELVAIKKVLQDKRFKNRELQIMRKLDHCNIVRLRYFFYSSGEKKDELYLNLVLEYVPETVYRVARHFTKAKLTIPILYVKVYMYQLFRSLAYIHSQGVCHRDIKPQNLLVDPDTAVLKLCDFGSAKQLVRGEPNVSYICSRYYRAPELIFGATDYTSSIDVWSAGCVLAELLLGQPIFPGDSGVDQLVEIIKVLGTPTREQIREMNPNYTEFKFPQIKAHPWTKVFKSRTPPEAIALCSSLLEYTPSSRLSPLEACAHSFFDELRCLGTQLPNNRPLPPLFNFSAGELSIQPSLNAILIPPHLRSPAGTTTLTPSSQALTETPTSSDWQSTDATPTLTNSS
Chain of p38 MAPKα (Q16539 whole entry): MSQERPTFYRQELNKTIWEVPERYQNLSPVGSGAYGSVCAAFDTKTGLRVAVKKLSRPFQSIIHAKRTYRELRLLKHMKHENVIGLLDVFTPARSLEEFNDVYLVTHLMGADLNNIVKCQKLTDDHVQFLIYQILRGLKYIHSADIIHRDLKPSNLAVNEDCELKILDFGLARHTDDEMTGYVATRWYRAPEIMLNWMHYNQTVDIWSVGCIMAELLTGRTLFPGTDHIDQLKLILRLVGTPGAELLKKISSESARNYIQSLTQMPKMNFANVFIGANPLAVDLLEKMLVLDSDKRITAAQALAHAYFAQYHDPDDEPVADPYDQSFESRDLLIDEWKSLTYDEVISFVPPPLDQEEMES
Chain of cSrc (P12931 whole entry, looked up): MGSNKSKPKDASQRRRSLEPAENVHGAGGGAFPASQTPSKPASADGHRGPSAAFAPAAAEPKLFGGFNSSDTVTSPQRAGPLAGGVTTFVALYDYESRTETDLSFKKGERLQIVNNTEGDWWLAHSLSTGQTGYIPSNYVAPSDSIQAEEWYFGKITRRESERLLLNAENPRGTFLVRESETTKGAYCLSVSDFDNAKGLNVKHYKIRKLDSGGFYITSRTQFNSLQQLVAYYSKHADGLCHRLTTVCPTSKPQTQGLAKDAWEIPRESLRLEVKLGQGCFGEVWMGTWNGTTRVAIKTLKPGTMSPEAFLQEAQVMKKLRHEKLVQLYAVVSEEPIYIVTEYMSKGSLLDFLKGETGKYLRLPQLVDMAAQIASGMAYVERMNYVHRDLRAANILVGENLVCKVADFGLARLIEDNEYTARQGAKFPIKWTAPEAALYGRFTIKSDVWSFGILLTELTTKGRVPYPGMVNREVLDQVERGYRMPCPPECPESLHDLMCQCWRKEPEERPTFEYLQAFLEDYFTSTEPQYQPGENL

Take `CC(C)(C)c1cc(NC(=O)Nc2ccc(Oc3ccnc(Nc4ccc5scnc5c4)n3)c3ccccc23)n(-c2ccc(OCCN3CCOCC3)cc2)n1` [Example 79, 1-(4-((2-(benzo[d]thiazol-5-ylamino)pyrimidin-4-yl)oxy)naphthalen-1-yl)-3-(3-(tert-butyl)-1-(4-(2-morpholinoethoxy)phenyl)-1H-pyrazol-5-yl)urea]: in the data set with d-U937 cells, the “MTT Assay Cell viability at time point in d-U937 cells 4 h” value was “−ve (−ve and +ve indicate that the value is below and above respectively, the no significant effect threshold, defined as 30% inhibition at 1 μg/mL at the time point indicated.)”. In the data set on d-U937 cells, the “MTT Assay Cell viability at time point in d-U937 cells 24 h” value was “−ve (−ve and +ve indicate that the value is below and above respectively, the no significant effect threshold, defined as 30% inhibition at 1 μg/mL at the time point indicated.)”. Moreover, the IC50 is 0.007 µM in data set [1]; 0.036 µM on Syk; 0.0124 µM in data set [3]; 0.008 µM against cSrc; 0.149 µM against p38 MAPKα; 0.73 µM on GSK3α. Further, the EC50 in data set [2] was found to be 0.0105 µM.

Turning to `COCCOc1cccc(-n2nc(C(C)(C)C)cc2NC(=O)Nc2ccc(Oc3ccnc(Nc4cc(C)c5[nH]ncc5c4)c3)c3ccccc23)c1` [Example 57], the “MTT Assay Cell viability at time point in d-U937 cells 4 h” value with d-U937 cells is “−ve (−ve and +ve indicate that the value is below and above respectively, the no significant effect threshold, defined as 30% inhibition at 1 μg/mL at the time point indicated.)”. The “MTT Assay Cell viability at time point in d-U937 cells 24 h” value in the data set with d-U937 cells was “−ve (−ve and +ve indicate that the value is below and above respectively, the no significant effect threshold, defined as 30% inhibition at 1 μg/mL at the time point indicated.)”. For the same compound, the IC50 is 0.0044 µM in data set [1]; 0.015 µM against Syk; 0.0023 µM in data set [3]; 0.019 µM at cSrc; 0.074 µM against p38 MAPKα; 4.7 µM against GSK3α. For the same compound, the EC50 in data set [2] came out at 0.0011 µM.

Regarding `COc1ccc(-n2nc(C(C)C)cc2NC(=O)Nc2ccc(Oc3ccnc(Nc4ccc5[nH]nc(OCCN6CCOCC6)c5c4)n3)c3ccccc23)cc1` [Example 44, 1-(3-isopropyl-1-(4-methoxyphenyl)-1H-pyrazol-5-yl)-3-(4-((2-((3-(2-morpholinoethoxy)-1H-indazol-5-yl)amino)pyrimidin-4-yl)oxy)naphthalen-1-yl)urea], the “MTT Assay Cell viability at time point in d-U937 cells 4 h” value in the data set with d-U937 cells was “−ve (−ve and +ve indicate that the value is below and above respectively, the no significant effect threshold, defined as 30% inhibition at 1 μg/mL at the time point indicated.)”. Further, in the data set on d-U937 cells, the “MTT Assay Cell viability at time point in d-U937 cells 24 h” value is “−ve (−ve and +ve indicate that the value is below and above respectively, the no significant effect threshold, defined as 30% inhibition at 1 μg/mL at the time point indicated.)”. The IC50 in data set [1] came to 0.0014 µM; on Syk, 0.002 µM; in data set [3], 0.0008 µM; against cSrc, 0.002 µM; against p38 MAPKα, 0.005 µM; against GSK3α, 0.203 µM. For the same compound, the EC50 in data set [2] came out at 0.0004 µM.

Turning to `CC(C)c1cc(NC(=O)Nc2ccc(Oc3ccnc(Nc4ccc5[nH]ncc5c4)n3)c3ccccc23)n(-c2ccc(=O)n(CCO)c2)n1` [Example 85, 1-(4-((2-((1H-indazol-5-yl)amino)pyrimidin-4-yl)oxy)naphthalen-1-yl)-3-(1-(1-(2-hydroxyethyl)-6-oxo-1,6-dihydropyridin-3-yl)-3-isopropyl-1H-pyrazol-5-yl)urea], the “MTT Assay Cell viability at time point in d-U937 cells 4 h” value in the data set with d-U937 cells was “−ve (−ve and +ve indicate that the value is below and above respectively, the no significant effect threshold, defined as 30% inhibition at 1 μg/mL at the time point indicated.)”. Further, the “MTT Assay Cell viability at time point in d-U937 cells 24 h” value with d-U937 cells was “−ve (−ve and +ve indicate that the value is below and above respectively, the no significant effect threshold, defined as 30% inhibition at 1 μg/mL at the time point indicated.)”. The IC50 in data set [1] was 0.0702 µM; against Syk, 0.015 µM; in data set [3] it was 0.0544 µM; at cSrc it was less than 0.002 µM; against p38 MAPKα, 0.008 µM; at GSK3α it was 2.53 µM. Further, the EC50 in data set [2] was 0.0197 µM.

In the case of `CC(C)c1cc(NC(=O)Nc2ccc(Oc3ccnc(Nc4ccc5c(c4)NC(=O)C5)n3)c3ccccc23)n(-c2ccc(OCCN3CCOCC3)cc2)n1` [Example 61, 1-(3-isopropyl-1-(4-(2-morpholinoethoxy)phenyl)-1H-pyrazol-5-yl)-3-(4-((2-((2-oxoindolin-6-yl)amino)pyrimidin-4-yl)oxy)naphthalen-1-yl)urea], the “MTT Assay Cell viability at time point in d-U937 cells 4 h” value in the data set with d-U937 cells was “−ve (−ve and +ve indicate that the value is below and above respectively, the no significant effect threshold, defined as 30% inhibition at 1 μg/mL at the time point indicated.)”. Moreover, in the data set with d-U937 cells, the “MTT Assay Cell viability at time point in d-U937 cells 24 h” value was “−ve (−ve and +ve indicate that the value is below and above respectively, the no significant effect threshold, defined as 30% inhibition at 1 μg/mL at the time point indicated.)”. Moreover, the IC50 is more than 0.135 µM in data set [1]; 0.007 µM against Syk; 0.0847 µM in data set [3]; less than 0.001 µM against cSrc; 0.014 µM against p38 MAPKα; 1.54 µM at GSK3α. The EC50 in data set [2] is 0.0187 µM.

As for `Cc1cc(Nc2nccc(Oc3ccc(NC(=O)Nc4cc(C(C)(C)C)nn4-c4cccc(CN5CCCC5=O)c4)c4ccccc34)n2)cc2cn[nH]c12` [Example 10, 1-(3-(tert-Butyl)-1-(3-((2-oxopyrrolidin-1-yl)methyl)phenyl)-1H-pyrazol-5-yl)-3-(4-((2-((7-methyl-1H-indazol-5-yl)amino)pyrimidin-4-yl)oxy)naphthalen-1-yl)urea], the “MTT Assay Cell viability at time point in d-U937 cells 4 h” value in the data set on d-U937 cells is “−ve (−ve and +ve indicate that the value is below and above respectively, the no significant effect threshold, defined as 30% inhibition at 1 μg/mL at the time point indicated.)”. In addition, the “MTT Assay Cell viability at time point in d-U937 cells 24 h” value with d-U937 cells is “−ve (−ve and +ve indicate that the value is below and above respectively, the no significant effect threshold, defined as 30% inhibition at 1 μg/mL at the time point indicated.)”. The IC50 in data set [1] is 0.0039 µM; at Syk it was 0.002 µM; in data set [3], 0.0012 µM; against cSrc, less than 0.001 µM; on p38 MAPKα it was 0.018 µM; against GSK3α it was 0.589 µM. Besides, the EC50 in data set [2] was 0.0014 µM.

Turning to `CC(C)(C)c1cc(NC(=O)Nc2ccc(Oc3ccnc(Nc4ccc5c(c4)NC(=O)C5(C)C)n3)c3ccccc23)n(-c2ccc(OCCN3CCOCC3)cc2)n1` [Example 62, 1-(3-(tert-butyl)-1-(4-(2-morpholinoethoxy)phenyl)-1H-pyrazol-5-yl)-3-(4-((2-((3,3-dimethyl-2-oxoindolin-6-yl)amino)pyrimidin-4-yl)oxy)naphthalen-1-yl)urea], in the data set on d-U937 cells, the “MTT Assay Cell viability at time point in d-U937 cells 4 h” value is “−ve (−ve and +ve indicate that the value is below and above respectively, the no significant effect threshold, defined as 30% inhibition at 1 μg/mL at the time point indicated.)”. In addition, the “MTT Assay Cell viability at time point in d-U937 cells 24 h” value with d-U937 cells is “−ve (−ve and +ve indicate that the value is below and above respectively, the no significant effect threshold, defined as 30% inhibition at 1 μg/mL at the time point indicated.)”. In addition, the IC50 in data set [1] was determined as 0.0116 µM; against Syk, 0.009 µM; in data set [3], 0.0227 µM; against cSrc, 0.005 µM; at p38 MAPKα it was 0.098 µM; against GSK3α it was 1.7 µM. Moreover, the EC50 in data set [2] is 0.0073 µM.

With `COc1ccc(-n2nc(C(C)(C)C)cc2NC(=O)Nc2ccc(Oc3ccnc(Nc4ccc5[nH]nc(C(=O)N(C)C)c5c4)n3)c3ccccc23)cc1` [Example 47, 5-((4-((4-(3-(3-(tert-butyl)-1-(4-methoxyphenyl)-1H-pyrazol-5-yl)ureido)naphthalen-1-yl)oxy)pyrimidin-2-yl)amino)-N,N-dimethyl-1H-indazole-3-carboxamide], the “MTT Assay Cell viability at time point in d-U937 cells 4 h” value in the data set on d-U937 cells was “−ve (−ve and +ve indicate that the value is below and above respectively, the no significant effect threshold, defined as 30% inhibition at 1 μg/mL at the time point indicated.)”. Further, in the data set with d-U937 cells, the “MTT Assay Cell viability at time point in d-U937 cells 24 h” value was “−ve (−ve and +ve indicate that the value is below and above respectively, the no significant effect threshold, defined as 30% inhibition at 1 μg/mL at the time point indicated.)”. The IC50 was 0.0005 µM in data set [1]; 0.005 µM at Syk; 0.0033 µM in data set [3]; less than 0.001 µM at cSrc; 0.032 µM at p38 MAPKα; 0.472 µM against GSK3α. The EC50 in data set [2] is 0.0009 µM.
